Experimental data as given in paper PMC4774911, “Biochemical Screening of Five Protein Kinases from Plasmodium falciparum against 14,000 Cell-Active Compounds” (PLoS ONE, 2016).
Where “and” joins values, the source holds several entries; their conditions need not be identical. Identical values can stand only once.

Experiments:
[1] = target: CLK1 (Homo sapiens, UniProt P49759); experiment: biochemical; set-up: endogenous in cells; host or cells: K562 cell extract; species or system K562 (extract); replicate k of n = 2 (each experiment ID is one independent experiment; two experiment IDs per compound); conditions: read-out: KDapp
[2] = target: WEE1 (Homo sapiens, UniProt P30291); experiment: biochemical; set-up: endogenous in cells; host or cells: K562 cell extract; species or system K562 (extract); replicate k of n = 2 (each experiment ID is one independent experiment; two experiment IDs per compound); conditions: read-out: KDapp
WEE1, sequence (P30291 whole entry): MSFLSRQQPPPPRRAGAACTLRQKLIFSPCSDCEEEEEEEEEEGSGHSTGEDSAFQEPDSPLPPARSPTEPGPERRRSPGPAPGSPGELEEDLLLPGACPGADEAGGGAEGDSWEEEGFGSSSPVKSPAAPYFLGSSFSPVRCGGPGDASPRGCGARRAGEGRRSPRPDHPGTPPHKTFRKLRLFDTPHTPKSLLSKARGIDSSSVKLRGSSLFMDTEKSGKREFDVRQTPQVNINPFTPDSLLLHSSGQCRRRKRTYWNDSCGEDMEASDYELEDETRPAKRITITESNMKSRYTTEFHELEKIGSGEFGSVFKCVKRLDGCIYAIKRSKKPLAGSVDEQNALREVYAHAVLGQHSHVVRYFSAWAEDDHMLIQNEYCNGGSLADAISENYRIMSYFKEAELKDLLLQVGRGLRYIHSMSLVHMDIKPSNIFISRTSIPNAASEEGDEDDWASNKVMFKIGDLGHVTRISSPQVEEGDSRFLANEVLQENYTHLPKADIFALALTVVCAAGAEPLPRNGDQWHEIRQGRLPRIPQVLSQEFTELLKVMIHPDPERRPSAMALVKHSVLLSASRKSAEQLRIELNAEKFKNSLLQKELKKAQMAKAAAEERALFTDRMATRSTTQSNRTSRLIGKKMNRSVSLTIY

[3] = target: PTK2 (Homo sapiens, UniProt Q05397); experiment: biochemical; set-up: endogenous in cells; host or cells: K562 cell extract; species or system K562 (extract); replicate k of n = 2 (each experiment ID is one independent experiment; two experiment IDs per compound); conditions: read-out: KDapp
PTK2, sequence (Q05397 whole entry): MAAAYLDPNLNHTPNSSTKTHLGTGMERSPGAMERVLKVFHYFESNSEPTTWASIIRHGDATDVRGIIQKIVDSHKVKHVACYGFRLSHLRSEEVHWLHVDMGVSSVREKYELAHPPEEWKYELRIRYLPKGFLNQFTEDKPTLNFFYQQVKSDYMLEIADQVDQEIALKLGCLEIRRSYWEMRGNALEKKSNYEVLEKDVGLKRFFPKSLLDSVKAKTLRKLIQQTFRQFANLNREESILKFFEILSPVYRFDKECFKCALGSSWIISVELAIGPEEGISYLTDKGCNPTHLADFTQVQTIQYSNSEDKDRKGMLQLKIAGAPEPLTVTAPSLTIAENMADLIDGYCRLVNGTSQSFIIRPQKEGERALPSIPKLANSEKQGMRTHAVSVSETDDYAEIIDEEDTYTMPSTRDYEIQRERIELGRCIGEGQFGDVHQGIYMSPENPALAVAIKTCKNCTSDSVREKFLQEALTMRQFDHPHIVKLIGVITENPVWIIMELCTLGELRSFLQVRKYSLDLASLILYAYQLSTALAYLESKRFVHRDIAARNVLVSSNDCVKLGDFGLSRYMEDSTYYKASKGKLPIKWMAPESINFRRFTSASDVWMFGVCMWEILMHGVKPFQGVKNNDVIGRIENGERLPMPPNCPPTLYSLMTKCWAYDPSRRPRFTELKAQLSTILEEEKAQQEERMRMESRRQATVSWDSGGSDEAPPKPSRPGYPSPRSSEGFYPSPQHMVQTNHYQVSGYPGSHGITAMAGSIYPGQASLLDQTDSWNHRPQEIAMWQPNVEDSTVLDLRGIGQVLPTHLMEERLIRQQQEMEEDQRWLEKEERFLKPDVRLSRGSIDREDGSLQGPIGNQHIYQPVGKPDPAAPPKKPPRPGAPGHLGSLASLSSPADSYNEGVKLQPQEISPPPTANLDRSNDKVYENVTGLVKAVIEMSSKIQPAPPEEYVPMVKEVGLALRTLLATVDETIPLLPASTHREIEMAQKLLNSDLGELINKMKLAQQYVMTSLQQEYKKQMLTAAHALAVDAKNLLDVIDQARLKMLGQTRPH

[4] = target: T1, GAK (Homo sapiens, UniProt O14976); experiment: biochemical; set-up: endogenous in cells; host or cells: K562 cell extract; species or system K562 (extract); replicate k of n = 2 (each experiment ID is one independent experiment; two experiment IDs per compound); conditions: read-out: KDapp
T1 sequence (O14976 1-1311): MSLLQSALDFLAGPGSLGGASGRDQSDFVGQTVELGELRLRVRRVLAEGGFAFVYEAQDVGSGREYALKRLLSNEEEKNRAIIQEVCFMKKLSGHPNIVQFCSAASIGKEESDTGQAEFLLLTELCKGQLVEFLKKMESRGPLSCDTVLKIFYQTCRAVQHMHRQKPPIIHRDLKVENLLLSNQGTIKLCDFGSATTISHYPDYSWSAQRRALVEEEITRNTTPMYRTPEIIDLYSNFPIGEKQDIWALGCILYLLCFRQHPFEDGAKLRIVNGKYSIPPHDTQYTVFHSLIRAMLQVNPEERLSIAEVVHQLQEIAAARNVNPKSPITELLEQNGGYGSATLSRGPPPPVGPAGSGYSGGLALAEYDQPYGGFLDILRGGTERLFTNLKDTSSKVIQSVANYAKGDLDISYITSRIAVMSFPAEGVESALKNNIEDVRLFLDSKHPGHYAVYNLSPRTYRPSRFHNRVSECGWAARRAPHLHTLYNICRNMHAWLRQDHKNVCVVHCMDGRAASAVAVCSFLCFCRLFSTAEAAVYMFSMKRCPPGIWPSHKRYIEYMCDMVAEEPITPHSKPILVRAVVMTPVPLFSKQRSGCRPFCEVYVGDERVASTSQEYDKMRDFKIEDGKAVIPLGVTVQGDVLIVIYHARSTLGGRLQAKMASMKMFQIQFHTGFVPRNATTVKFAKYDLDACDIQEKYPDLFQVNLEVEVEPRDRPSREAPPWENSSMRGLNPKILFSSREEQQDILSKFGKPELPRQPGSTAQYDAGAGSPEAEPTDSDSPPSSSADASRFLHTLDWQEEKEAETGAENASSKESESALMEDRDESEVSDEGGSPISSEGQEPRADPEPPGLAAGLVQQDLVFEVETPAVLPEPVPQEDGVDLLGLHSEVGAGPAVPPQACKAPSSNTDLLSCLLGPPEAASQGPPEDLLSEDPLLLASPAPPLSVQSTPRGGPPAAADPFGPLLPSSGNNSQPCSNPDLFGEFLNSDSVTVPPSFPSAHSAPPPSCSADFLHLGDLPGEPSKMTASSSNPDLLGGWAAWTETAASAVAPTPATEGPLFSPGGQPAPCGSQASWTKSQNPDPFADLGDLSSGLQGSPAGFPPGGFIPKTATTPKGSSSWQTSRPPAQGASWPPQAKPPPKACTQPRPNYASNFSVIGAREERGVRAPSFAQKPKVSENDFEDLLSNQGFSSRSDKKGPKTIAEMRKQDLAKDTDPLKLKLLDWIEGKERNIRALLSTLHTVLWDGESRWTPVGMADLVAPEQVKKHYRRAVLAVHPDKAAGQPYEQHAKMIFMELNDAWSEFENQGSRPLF

[5] = target: T2, STK17A (Homo sapiens, UniProt Q9UEE5); experiment: biochemical; set-up: endogenous in cells; host or cells: K562 cell extract; species or system K562 (extract); replicate k of n = 2 (each experiment ID is one independent experiment; two experiment IDs per compound); conditions: read-out: KDapp
T2 sequence (Q9UEE5 1-414): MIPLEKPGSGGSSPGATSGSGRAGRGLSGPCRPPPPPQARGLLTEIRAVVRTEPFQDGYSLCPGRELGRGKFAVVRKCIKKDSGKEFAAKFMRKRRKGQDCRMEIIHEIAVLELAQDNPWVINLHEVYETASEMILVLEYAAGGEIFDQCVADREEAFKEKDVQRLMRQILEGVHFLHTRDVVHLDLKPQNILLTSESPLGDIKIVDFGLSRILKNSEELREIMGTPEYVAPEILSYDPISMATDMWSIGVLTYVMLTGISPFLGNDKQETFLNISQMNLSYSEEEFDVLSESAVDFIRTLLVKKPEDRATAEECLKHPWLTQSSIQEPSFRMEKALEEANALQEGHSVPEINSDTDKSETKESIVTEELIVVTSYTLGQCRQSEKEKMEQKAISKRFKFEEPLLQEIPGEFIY

[6] = target: TYK2 (Homo sapiens, UniProt P29597); experiment: biochemical; set-up: endogenous in cells; host or cells: K562 cell extract; species or system K562 (extract); replicate k of n = 2 (each experiment ID is one independent experiment; two experiment IDs per compound); conditions: read-out: KDapp
TYK2, sequence (P29597 whole entry): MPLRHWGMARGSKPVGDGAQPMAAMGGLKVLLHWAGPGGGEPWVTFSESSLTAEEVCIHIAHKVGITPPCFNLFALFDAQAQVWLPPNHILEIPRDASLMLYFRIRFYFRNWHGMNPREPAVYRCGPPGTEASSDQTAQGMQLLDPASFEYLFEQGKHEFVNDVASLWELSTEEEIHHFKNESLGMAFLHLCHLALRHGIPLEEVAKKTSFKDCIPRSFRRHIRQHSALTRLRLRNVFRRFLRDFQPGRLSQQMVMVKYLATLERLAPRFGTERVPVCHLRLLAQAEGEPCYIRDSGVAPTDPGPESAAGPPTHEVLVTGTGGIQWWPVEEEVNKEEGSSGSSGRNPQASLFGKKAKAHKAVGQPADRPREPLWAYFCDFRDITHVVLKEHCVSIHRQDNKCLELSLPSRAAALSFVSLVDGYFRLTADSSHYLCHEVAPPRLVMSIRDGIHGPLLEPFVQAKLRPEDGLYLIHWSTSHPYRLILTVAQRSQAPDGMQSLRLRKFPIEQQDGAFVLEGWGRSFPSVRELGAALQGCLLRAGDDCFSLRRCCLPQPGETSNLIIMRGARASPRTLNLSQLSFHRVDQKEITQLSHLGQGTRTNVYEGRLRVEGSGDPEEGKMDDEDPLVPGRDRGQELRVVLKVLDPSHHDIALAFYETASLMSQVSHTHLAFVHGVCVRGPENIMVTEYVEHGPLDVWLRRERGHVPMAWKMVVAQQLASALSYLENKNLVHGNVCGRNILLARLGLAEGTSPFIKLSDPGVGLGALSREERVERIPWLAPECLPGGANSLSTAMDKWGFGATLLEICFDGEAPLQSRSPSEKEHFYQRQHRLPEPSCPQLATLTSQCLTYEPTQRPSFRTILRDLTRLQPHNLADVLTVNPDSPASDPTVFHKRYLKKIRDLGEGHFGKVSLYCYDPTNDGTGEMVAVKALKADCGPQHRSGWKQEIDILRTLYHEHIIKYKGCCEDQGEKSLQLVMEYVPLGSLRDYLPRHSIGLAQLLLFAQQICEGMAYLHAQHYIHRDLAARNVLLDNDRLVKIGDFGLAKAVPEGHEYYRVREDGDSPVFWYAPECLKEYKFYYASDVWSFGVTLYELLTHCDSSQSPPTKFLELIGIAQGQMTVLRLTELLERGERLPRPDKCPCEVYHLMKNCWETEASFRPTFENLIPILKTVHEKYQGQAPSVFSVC

[7] = target: RPS6KB1 (Homo sapiens, UniProt P23443); experiment: biochemical
[8] = target: ZAK (Homo sapiens, UniProt Q9NYL2); experiment: biochemical; set-up: endogenous in cells; host or cells: K562 cell extract; species or system K562 (extract); replicate k of n = 2 (each experiment ID is one independent experiment; two experiment IDs per compound); conditions: read-out: KDapp
ZAK, sequence (Q9NYL2 whole entry): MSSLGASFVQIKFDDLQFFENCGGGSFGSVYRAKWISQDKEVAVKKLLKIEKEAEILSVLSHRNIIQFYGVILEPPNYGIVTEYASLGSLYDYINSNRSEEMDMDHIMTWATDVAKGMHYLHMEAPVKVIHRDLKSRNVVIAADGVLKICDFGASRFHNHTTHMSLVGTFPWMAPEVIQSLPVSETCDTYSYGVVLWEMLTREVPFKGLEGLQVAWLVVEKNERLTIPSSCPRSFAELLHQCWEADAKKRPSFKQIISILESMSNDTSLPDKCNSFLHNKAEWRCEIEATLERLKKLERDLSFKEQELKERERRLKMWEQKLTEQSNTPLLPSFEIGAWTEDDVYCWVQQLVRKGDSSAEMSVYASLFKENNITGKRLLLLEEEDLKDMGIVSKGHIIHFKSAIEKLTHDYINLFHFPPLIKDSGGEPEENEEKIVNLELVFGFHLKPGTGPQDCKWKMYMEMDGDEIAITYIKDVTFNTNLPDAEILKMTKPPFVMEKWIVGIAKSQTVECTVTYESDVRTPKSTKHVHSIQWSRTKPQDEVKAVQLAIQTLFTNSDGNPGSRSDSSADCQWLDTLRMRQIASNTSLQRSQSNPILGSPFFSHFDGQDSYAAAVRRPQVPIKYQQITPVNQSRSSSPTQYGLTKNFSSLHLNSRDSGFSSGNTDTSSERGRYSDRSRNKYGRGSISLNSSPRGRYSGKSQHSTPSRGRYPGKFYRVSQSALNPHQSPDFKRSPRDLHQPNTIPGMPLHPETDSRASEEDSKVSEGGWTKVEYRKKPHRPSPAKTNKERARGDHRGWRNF

[9] = target: AAK1 (Homo sapiens, UniProt Q2M2I8); experiment: Kinobead competition assay in K562 extract: AAK1
AAK1, sequence (Q2M2I8 whole entry): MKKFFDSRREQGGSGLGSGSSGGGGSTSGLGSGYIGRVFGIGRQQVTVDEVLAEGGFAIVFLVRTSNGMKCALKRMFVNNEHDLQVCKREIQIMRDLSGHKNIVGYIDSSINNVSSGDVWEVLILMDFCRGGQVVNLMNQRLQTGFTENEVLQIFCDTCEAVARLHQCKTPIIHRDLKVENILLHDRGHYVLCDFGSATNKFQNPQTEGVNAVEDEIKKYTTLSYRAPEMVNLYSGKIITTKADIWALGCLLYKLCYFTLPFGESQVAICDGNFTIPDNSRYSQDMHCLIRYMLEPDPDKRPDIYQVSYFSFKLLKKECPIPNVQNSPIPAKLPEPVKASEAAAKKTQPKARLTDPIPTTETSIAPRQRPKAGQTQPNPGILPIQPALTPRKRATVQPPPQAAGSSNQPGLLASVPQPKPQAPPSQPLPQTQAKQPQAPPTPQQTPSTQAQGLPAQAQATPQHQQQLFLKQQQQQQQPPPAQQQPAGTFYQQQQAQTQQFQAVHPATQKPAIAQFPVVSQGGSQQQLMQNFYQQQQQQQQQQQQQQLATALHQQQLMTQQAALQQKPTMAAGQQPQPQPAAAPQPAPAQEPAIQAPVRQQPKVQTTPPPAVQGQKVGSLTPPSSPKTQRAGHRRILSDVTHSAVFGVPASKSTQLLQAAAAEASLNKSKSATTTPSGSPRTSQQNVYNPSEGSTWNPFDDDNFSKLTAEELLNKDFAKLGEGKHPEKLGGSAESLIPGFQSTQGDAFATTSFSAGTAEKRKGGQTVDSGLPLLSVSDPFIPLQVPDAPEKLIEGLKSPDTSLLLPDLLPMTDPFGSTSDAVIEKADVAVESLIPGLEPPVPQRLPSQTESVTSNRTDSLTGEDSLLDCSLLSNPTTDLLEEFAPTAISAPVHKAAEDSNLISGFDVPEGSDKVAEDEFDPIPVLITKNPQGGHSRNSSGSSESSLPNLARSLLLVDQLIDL
Description: Kinobeads were prepared as described [25, 26]. […] Briefly, Kinobeads were washed and equilibrated in lysis buffer (50 mM Tris-Cl, pH 7.4, 0.4% Igepal-CA630, 1.5 mM MgCl2, 5% Glycerol, 150 mM NaCl, 25 mM NaF, 1 mM Na3VO4, 1 mM DTT, and 1 complete EDTA-free protease inhibitor tablet (Roche) per 25 ml). […] Digestion, labeling with TMT isobaric mass tags, peptide fractionation, and mass spectrometric analyses were performed essentially as described [27]. Criteria for protein quantification were: a minimum of 2 sequence assignments matching to unique peptides was required (FDR for quantified proteins <<0.1%), Mascot ion score > 15, signal to background ratio of the precursor ion > 4, signal to interference > 0.5 [28]. Reporter ion intensities were multiplied by ion accumulation time, yielding an area value proportional to the number of reporter ions present in the mass analyzer. Peptide fold changes were corrected for isotope purity as described and adjusted for interference caused by co-eluting nearly isobaric peaks as estimated by the signal-to-interference measure [29]. Protein quantification was achieved using a sum-based bootstrap algorithm [30]. Apparent dissociation constants were determined by taking into account the protein depletion by the beads as described [27].
Kinobeads were incubated with K562 cell extract either in the presence of vehicle (DMSO) or TCAMS compound, respectively (20 μM-0.03 μM). Protein kinases captured by the beads (140–150 kinases per experiment) were quantified following tryptic digestion, isobaric peptide tagging, and LC-MS/MS analysis. Kinases were identified as potential targets by virtue of their reduced capture in the presence of excess TCAMS compounds. Apparent dissociation constants (Kd’s) were calculated from the extent to which capture of each kinase was reduced at each compound concentration.

[10] = target: ABL1 (Homo sapiens, UniProt P00519)
[11] = AAK1, K-562 extract, conc. series 20.0-0.0uM, channel assignment not given

Structure (SMILES): CN(C)CC(O)COc1ccc(Nc2ncc([N+](=O)[O-])c(Nc3ccccc3O)n2)cc1.O=C(O)C(F)(F)F (centres unmarked) [TCMDC-141399]
- Kd [1]: 171 nM and 119 nM
- Kd [2]: 209 nM
- Kd [3]: 26.9 nM and 29 nM
- Kd [4]: 591 nM and 907 nM
- Kd [5]: 2550 nM
- Kd [6]: 677 nM
- IC50 [7]: > 20000 nM

Structure (SMILES): Cl.NCC1(c2nc(-c3ccc(Cl)c(O)c3)c(-c3ccncc3)[nH]2)CCCCC1 [TCMDC-141154]
- Kd [8]: 6130 nM and 3630 nM
- IC50 [9]: > 20000 nM
- abundance relative to vehicle TMT126 ([9]; AAK1, K-562 extract, conc. series 20.0, 4.0, 0.8, 0.16, 0.032, 0.0uM, channel assignment not given): 0.86
- abundance relative to vehicle TMT127L [9, 11]: 0.83
- abundance relative to vehicle TMT128H [9, 11]: 0.89
- abundance relative to vehicle TMT129L [9, 11]: 1.02
- abundance relative to vehicle TMT130H [9, 11]: 1.01
- Hill ([9]; AAK1, kinobead competition curve): 0.56

Structure (SMILES): CN1CCN(c2ccc(Nc3ncc(C#N)c(Nc4ccccc4C(N)=O)n3)cc2)CC1.Cl [TCMDC-134116]
- IC50 [10]: 130 nM
- Kd [1]: 20.7 nM and 21.1 nM
- Kd [2]: 17.3 nM and 16.9 nM
- Kd [8]: 677 nM
- Kd [3]: 13.2 nM and 17.4 nM
- Kd [4]: 32.3 nM and 39.4 nM
- Kd [5]: 109 nM
- Kd [6]: 35.6 nM and 32.8 nM
